In patent US20200129582A1, “NOVEL PEPTIDES AND PEPTIDOMIMETICS” (UNIVERSITY OF AUCKLAND, priority 2016, published 2020):
Several values for one entry are separate records, joined by “and”; a condition that tells them apart may be missing. Equal entries are not always repeated. Where two headings read alike, the source gives them in different places.

How the values were obtained:
[1] = target: T1, hemichannel-mediated ATP release from hCMVEC cells (Homo sapiens, UniProt P17302); test: In vitro ischemia injury ATP release assay (single alanine substituted and truncated peptides); type: cell-based
T1 construct: endogenous in cells; host or cells: hCMVEC (human cerebral microvascular endothelial cells)
T1 sequence (P17302 2-382 limits assumed): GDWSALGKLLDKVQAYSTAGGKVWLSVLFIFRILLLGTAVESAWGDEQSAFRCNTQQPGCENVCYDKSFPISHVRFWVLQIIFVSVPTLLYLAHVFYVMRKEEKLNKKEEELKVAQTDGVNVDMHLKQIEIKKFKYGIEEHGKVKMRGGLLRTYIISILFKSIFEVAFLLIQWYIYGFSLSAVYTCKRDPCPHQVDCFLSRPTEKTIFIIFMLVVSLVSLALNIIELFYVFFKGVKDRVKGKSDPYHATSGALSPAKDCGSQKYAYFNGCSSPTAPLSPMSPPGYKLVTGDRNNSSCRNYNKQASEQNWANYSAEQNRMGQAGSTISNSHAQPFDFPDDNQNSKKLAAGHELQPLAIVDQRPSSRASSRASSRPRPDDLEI
Protocol: The human cerebral endothelial cells (hCMVEC) were plated at a density of 0.025×10^6 cells per well in a collagen-coated 12-well plate (1 μg/cm^2) a day prior to the experiment. Cells were incubated in culture medium overnight. Hypoxic, acidic, ion-shifted Ringer injury solution that mimics ionic concentrations and acid-base shifts of the interstitial space in hypoxic-ischemic brains (Bondarenko and Chesler, 2001, […]) was used to trigger hemichannel opening. The injury solution contained (in mM): 38 NaCl, 13 NaHCO3, 3 Na-gluconate, 65 K-gluconate, 38 NMDG-Cl, 1 NaH2PO4, and 1.5 MgCl2. The injury solution was bubbled in 95% N2, 5% CO2 gas (20 L/min) for 5 minutes and pH adjusted to 6.6 before use. The standard ringer solution contained (in mM): 124 NaCl, 3 KCl, 26 NaHCO3, 26 NaHCO3, 1 NaH2PO4, 1.3 CaCl2, 1.5 MgCl2, and 10 Glucose, and pH adjusted to 7.4 before use (Bondarenko and Chesler, 2001). In the ischemia injury model, hCMVEC cells were incubated for 2 hours in 500 μL injury solution+/−Peptide5 (100 μM) (O'Carroll et al., 2008, Cell communication & adhesion 15:27-42; Danesh-Meyer et al., 2012, Brain: a journal of neurology 135:506-520; Davidson et al., 2012, Annals of neurology 71:121-132; Davidson et al., 2013, Experimental neurology 248:301-308; Davidson et al., 2014, PloS one 9:e96558; Davidson et al., 2015, J Cereb Blood Flow Metab), or +/−extracellular loop sequences (Table 5), or modified peptides (Table 2, 3) dissolved in injury solution (500 μL) with a final concentration of 100 μM. For negative control, hCMVEC cells were incubated only in 500 μL standard ringer solution for 2 hours. For positive control, hCMVEC cells were incubated only in 500 μL […] for 2 hours. All incubations were conducted at 37° C. in 95% O2 and 5% CO2. At the end of each experiment, samples were removed and immediately placed on ice. The concentration of ATP in the samples was determined using a Luciferin/luciferase bioluminescence reaction (ATP Determination Kit, Molecular Probes) and detected using a luminescence plate reader (VICTOR X, Perkin Elmer #2030-0010). Standard curves were generated in each experiment from an ATP standard (0 to 500 nM) to convert bioluminescence units to ATP concentration. […] The data is presented as mean±standard error relative to the injury or injury-reperfusion positive control. Statistically significant differences between samples were tested using one-way analysis of variance and Tukey's multiple comparisons test.
Peptides listed in table 5 and 2 were assessed using the ischemia injury model in hCMVEC cells as described above, and the medium was collected for ATP release measurement.
The human cerebral endothelial cells (hCMVEC) were plated at a density of 0.025×10^6 cells per well in a collagen-coated 12-well plate (1 μg/cm^2) a day prior to the experiment. Cells were incubated in culture medium overnight. Hypoxic, acidic, ion-shifted Ringer injury solution that mimics ionic concentrations and acid-base shifts of the interstitial space in hypoxic-ischemic brains (Bondarenko and Chesler, 2001) was used to trigger hemichannel opening. The injury solution contained (in mM): 38 NaCl, 13 NaHCO3, 3 Na-gluconate, 65 K-gluconate, 38 NMDG-Cl, 1 NaH2PO4, and 1.5 MgCl2. The injury solution was bubbled in 95% N2, 5% CO2 gas (20 L/min) for 5 minutes and pH adjusted to 6.6 before use. The standard ringer solution contained (in mM): 124 NaCl, 3 KCl, 26 NaHCO3, 26 NaHCO3, 1 NaH2PO4, 1.3 CaCl2, 1.5 MgCl2, and 10 Glucose, and pH adjusted to 7.4 before use (Bondarenko and Chesler, 2001).

[2] = target: T2, Connexin43 protein (hemichannels of hCMVEC cells) (Homo sapiens, UniProt P17302); type: cell-based; details: agent alone, 100 μM, FIG. 6, injury control 100±3.5%
T2 construct: In the ischemia injury model, hCMVEC cells were incubated for 2 hours; endogenous in cells; host or cells: hCMVEC (human cerebral microvascular endothelial cells)
T2 sequence (P17302 2-382): as the sequence (P17302 2-382 limits assumed) above

[3] = test system: hemichannels and gap junction channels; details: O'Carroll et al., 2008; cited from earlier work
[4] = target: T2, Connexin43 protein (hemichannels of hCMVEC cells); type: cell-based
Protocol: (§1) Peptide5 interacting site on the Connexin43 protein was determined using a competition assay. Extracellular loop sequences (Auspep, Australia) were dissolved in miliQ H2O were at a stock concentration of 1 mM […]. Extracellular loop sequences were mixed with the native Peptide5 at 1:1 ratio (100 μM), which was left for 1 hour at room temperature prior to the experiment to allow competitive binding to occur. Following 1-hour incubation, extracellular loop sequence and peptide5 mixture was dissolved in injury solution and exposed to hCMVEC cells for 2 hours using the ischaemia-reperfusion model described above. Extracellular medium was then collected for ATP measurement.
as §1, with “interaction sites” for “interacting site”

| Molecule | ATP release compared to injury control (in words) ([1]; hCMVEC, 100 μM, FIG. 3) | ATP release, % of the injury control ([1]; hCMVEC, ischemic injury solution 2 hours, 100 μM, FIG. 3, injury control 100±3.6%) [%] | ATP release, % of the injury control [2] [%] | high concentration that inhibits both hemichannel and gap junction channel function [3] [µM] | low concentrations that specifically inhibit hemichannels [3] [µM] | ATP release compared to injury control (in words) [1] | ATP release, % of the injury control [1] | ATP release, % of the injury control [4] [%] |
| --- | --- | --- | --- | --- | --- | --- | --- | --- |
| CC1(C)[C@@H](OC(=O)CCC(=O)O)CC[C@]2(C)[C@H]3C(=O)C=C4[C@@H]5C[C@@](C)(C(=O)O)CC[C@]5(C)CC[C@@]4(C)[C@]3(C)CC[C@@H]12 [CBX, Carbenoxolone] | significantly reduced ATP release | 9.1±10.1 | 13.4±4.8 | – | – | – | – | – |
| VDCFLSRPTEKT [Peptide5] | – | – | – | 500 | 5 to 50 | significantly reduced ATP release | 44.6±7.7% and 47.3±5.1% | 54.1±4.4 |
